Series [1] deals with T1, hNK2R (Homo sapiens, UniProt P21452).
T1 construct: host or cells: COS-7
T1 sequence (P21452 1-398): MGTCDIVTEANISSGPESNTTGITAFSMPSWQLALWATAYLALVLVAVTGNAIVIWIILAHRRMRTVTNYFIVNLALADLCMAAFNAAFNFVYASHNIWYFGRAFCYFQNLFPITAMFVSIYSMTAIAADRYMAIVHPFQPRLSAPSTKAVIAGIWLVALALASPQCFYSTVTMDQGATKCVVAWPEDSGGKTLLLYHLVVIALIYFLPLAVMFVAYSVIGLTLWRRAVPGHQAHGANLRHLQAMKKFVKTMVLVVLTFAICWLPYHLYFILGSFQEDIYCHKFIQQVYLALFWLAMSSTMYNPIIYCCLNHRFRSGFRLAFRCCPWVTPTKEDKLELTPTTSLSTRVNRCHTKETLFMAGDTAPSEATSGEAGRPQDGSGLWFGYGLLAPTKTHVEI
The series is described as follows: 3H-NKA competitive binding on transfected COS-7 cells. The conditions noted are these: competition with 3H-NKA, 4 h at 4 C. As to the method: (§1) Assays were carried out using COS-7 cells transiently transfected by calcium phosphate transfection with a vector pcDNA3.1(+) encoding one of the indicated receptors (Genscript). Briefly, DNA mixed with CaCl2 (2 M) and TE-buffer (10 mM Tris-HCl, 1 mM EDTA, pH 7.5) was dropwise added to 2×HBS (50 mM HEPES, 280 mM NaCl, 1.5 mM NaH2PO4, pH 7.2) and incubated for 45 min at room temperature (22±2° C.). The mixture and a final concentration of 100 μM Chloroquine were added to the cells and left to incubate for 5 hours at 37° C. under standard cell culture conditions (10% CO2) before changing medium to fresh maintenance medium.
The ^3H-NKA binding assay measures peptide-receptor binding by a competitive principle of receptor binding between radioactively labelled (3H) NKA (tracer) and synthesized peptide ligands on live cells expressing the receptor of interest. Assay solutions used: TKR buffer (50 mM Tris/HCl pH 7.5, 5 mM MnCl2, and 150 mM NaCl), wash buffer (TKR buffer+0.2% w/v OvAlb), binding buffer (wash buffer+0.1 mg/ml Bacitracin), and tracer solution (binding buffer+˜15000 cpm/well ^3H-tracer). The assay was performed on ice the day after transfection.
Briefly, maintenance medium was aspirated, and plates were washed ×1 in cold wash buffer before adding 100 μl cold binding buffer and placing at 4° C. to let plates cool. The cold plates were added indicated peptides (ligand) immediately followed by addition of cold tracer solution (˜15000 cpm/well). Plates were immediately moved to 4° C. and incubated for 4 hours. After incubation, binding was stopped by wash ×2 with cold wash buffer before adding 225 μl Ultima Gold XR. Plates were shaken at medium speed for approximately 30 min and left overnight at room temperature before counting the plates in a MicroBeta plate counter (Perkin Elmer).

Another series is described as follows: in vivo. Also noted: species or system mice. To be noted: mouse; for half-life: sc, 0.5 mg/kg. The procedure:
Pharmacokinetics: To evaluate the in vivo half-life of individual peptide analogues we used wild type lean mice at around 10 weeks of age injected once with a peptide analogue. For each sample time point 3-4 mice were used and blood was drawn from the submandibular vein at indicated time points following injection. Prior to injection mice were given ad libitum access to standard chow diet. Mice were subcutaneously injected with 0.5 mg/kg peptide analogue in a volume of 2 ml/kg. The amount of peptide analogue and metabolite(s) present in blood samples were measured by TF-LC-MS and MetID-LC-MS, respectively. Sample preparation: One volume of plasma is precipitated with three volumes of ethanol (with internal standard). The mixture is centrifuged at 13000 g for 20 min. One volume of supernatant is diluted with two volumes of Milli-Q water (1% formic acid). Calibration curve: peptide analogue was spiked into blank mouse plasma. Range: 0.5 to 2000 nM (linear 1/x2).

For series [2], the target named is T1, hNK2R. The experiment in a line: Hithunter cAMP assay (Gs-coupling) in transfected COS-7 cells. In kind it is cell-based. To be noted: COS-7 cells. The procedure:
as §1, with “As a secondary measure of agonist-induced G-protein coupled receptor (GPCR) activation cyclin adenosine monophosphate (cAMP) was measured by the Hithunter cAMP-assay from DiscoverX. Assays” for “Assays”
The cAMP-assay takes advantage of the tachykinin receptors' ability to induce production of the cAMP second messenger upon agonist (ligand) binding on receptor expressing cells. Production of cAMP stems from receptor coupling to Gs-protein although coupling to Gq-protein (IP3-production) is considered the primary signalling mechanism by tachykinin receptors.
The assay was performed the day after transfection. Briefly, maintenance medium was aspirated, and plates were washed ×1 in HBSS before adding assay buffer (HBSS+1 mM IBMX), pre-incubated for 30 min at 37° C. followed by 15 min incubation with agonist (ligand) at 37° C. After incubation, plates were subjected to cell lysis and anti-cAMP-antibody incubation as described by manufacturer. Luminescence was measured with EnVision Multimode Plate Reader from Perkin Elmer.
(cAMP levels reflect the balance of adenylyl cyclase and phosphodiesterase activity.)

Values joined by “and” are separate entries in the source; they are usually repeats but may differ in a detail not shown here. Equal entries are not always repeated. Numbered stars: 1 amine (or outer) side, 2 acyl side, 3 side chain; on linkers, the order of the positions; unused ones are H or OH. Square brackets hold non-standard residues; d marks the D form. Peptide text beside a SMILES is read from it. * marks the point of attachment. C18 diacid = O=C(O)CCCCCCCCCCCCCCCCC(=O)*; γGlu = O=C(O)[C@H](CCC(=O)[*:2])N[*:1]; NMeL = CN[C@@H](CC(C)C)C(=O)O; hSer = N[C@@H](CCO)C(=O)O; Nle = CCCC[C@H](N)C(=O)O; AEEA = NCCOCCOCC(=O)O

For `COCC[C@H](NC(=O)[C@H](CC(C)C)N(C)C(=O)CNC(=O)[C@@H](NC(=O)[C@H](Cc1ccccc1)NC(=O)[C@H](CCCCN)NC(=O)[C@H](CC(=O)O)NC(=O)COCCOCCNC(=O)COCCOCCNC(=O)CC[C@H](NC(=O)CCCCCCCCCCCCCCCCC(=O)O)C(=O)O)[C@@H](C)O)C(N)=O` [compound 383, *Asp;Lys;Phe;Thr;Gly;NmLeu;Metox;NH2] ({C18 diacid-γGlu-AEEA-AEEA}-DKFTG[NMeL][hSer](Me)-NH2), the EC50 (commonly the concentration at which the effect is half-maximal) at hNK2R [1] is 11 nM; at hNK2R [2], around 11 nM. In addition, the half-life (in general, how long it takes for the measured level to halve) in “in vivo” (Half-life) is at least 10 h. Further, the “hNK2R, cAMP Efficacy” value at hNK2R [2] came to 89%.
In the case of `COCC[C@H](NC(=O)[C@H](CC(C)C)N(C)C(=O)CNC(=O)[C@@H](NC(=O)[C@H](Cc1ccc(O)cc1)NC(=O)[C@H](CCCCN)NC(=O)[C@H](CC(=O)O)NC(=O)COCCOCCNC(=O)COCCOCCNC(=O)CC[C@H](NC(=O)CCCCCCCCCCCCCCCCC(=O)O)C(=O)O)C(C)C)C(N)=O` [compound 344, *Asp;Lys;Tyr;Val;Gly;NmLeu;Metox;NH2] ({C18 diacid-γGlu-AEEA-AEEA}-DKYVG[NMeL][hSer](Me)-NH2), the EC50 was 94 nM and 90 nM on hNK2R [1]; 28 nM on hNK2R [2]. In addition, the results for the half-life in the series “in vivo” and in “in vivo” (Half-life) were 10.3 h and at least 10 h, respectively. Besides, the “hNK2R, cAMP Efficacy” value on hNK2R [2] is 96% and 100%.
Regarding `CCCC[C@H](NC(=O)[C@H](CC(C)C)N(C)C(=O)CNC(=O)[C@@H](NC(=O)[C@H](Cc1ccccc1)NC(=O)[C@H](CCCCN)NC(=O)[C@H](CC(=O)O)NC(=O)COCCOCCNC(=O)COCCOCCNC(=O)CC[C@H](NC(=O)CCCCCCCCCCCCCCCCC(=O)O)C(=O)O)C(C)C)C(N)=O` [compound 304, *Asp;Lys;Phe;Val;Gly;NmLeu;Nle;NH2], the midpoint of the response on hNK2R [1], the EC50, lay at 25 nM. This compound returned a half-life in “in vivo” (Half-life) of at least 10 h. Besides, on hNK2R [2], a half-maximal response (EC50) required 2.3 nM and the “hNK2R, cAMP Efficacy” value is given as 100%.
Turning to `CCCC[C@H](NC(=O)[C@H](CC(C)C)N(C)C(=O)CNC(=O)[C@@H](NC(=O)[C@H](Cc1ccc(O)cc1)NC(=O)[C@H](CCCCN)NC(=O)[C@H](CC(=O)O)NC(=O)COCCOCCNC(=O)COCCOCCNC(=O)CC[C@H](NC(=O)CCCCCCCCCCCCCCCCC(=O)O)C(=O)O)C(C)C)C(N)=O` [compound 305, *Asp;Lys;Tyr;Val;Gly;NmLeu;Nle;NH2] ({C18 diacid-γGlu-AEEA-AEEA}-DKYVG[NMeL][Nle]-NH2), the EC50 on hNK2R [1] is 21 nM and 210 nM and ~100 nM. Besides, in the series “in vivo”, the “Plasma exposure [2 h]” value came to 5.364 µM and the “Plasma exposure [26 h]” value is on record as 183 nM. Moreover, in “in vivo” (330 nmol/kg), the AUC (as a rule, concentration integrated over time) came to 28.8 µM·h and the Cmax (usually the maximum level reached in the sampled fluid or tissue) was determined as 3.45 µM. This compound also had a half-life in “in vivo” (Half-life) of 5.5 h. Further, at hNK2R [2], the EC50 was 0.7 nM and ~0.8 nM; the “hNK2R, cAMP Efficacy” value is 50% and 70%.

(Values after patent US20230406883A1, “COMPOUNDS AND THEIR USE IN TREATMENT OF TACHYKININ RECEPTOR MEDIATED DISORDERS” (Embark Biotech ApS, priority 2020, published 2023).)
